{"source": "patent US8349791B2", "about": "“Polypeptides that bind membrane proteins” (The Trustees of the University of Pennsylvania, priority 2006, dated 2013)", "target": "T1, CHO cells expressing αIIbβ3 (Homo sapiens, UniProt P08514)", "T1 construct": "expressed in transfected cells; host or cells: CHO cells", "T1 sequence (P08514 891-1039 limits assumed)": "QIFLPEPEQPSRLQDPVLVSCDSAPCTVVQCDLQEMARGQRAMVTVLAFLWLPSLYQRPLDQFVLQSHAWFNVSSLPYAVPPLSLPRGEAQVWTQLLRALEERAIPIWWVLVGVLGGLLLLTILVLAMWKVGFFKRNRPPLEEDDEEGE", "T1 sequence (P08514 32-887 partner limits assumed)": "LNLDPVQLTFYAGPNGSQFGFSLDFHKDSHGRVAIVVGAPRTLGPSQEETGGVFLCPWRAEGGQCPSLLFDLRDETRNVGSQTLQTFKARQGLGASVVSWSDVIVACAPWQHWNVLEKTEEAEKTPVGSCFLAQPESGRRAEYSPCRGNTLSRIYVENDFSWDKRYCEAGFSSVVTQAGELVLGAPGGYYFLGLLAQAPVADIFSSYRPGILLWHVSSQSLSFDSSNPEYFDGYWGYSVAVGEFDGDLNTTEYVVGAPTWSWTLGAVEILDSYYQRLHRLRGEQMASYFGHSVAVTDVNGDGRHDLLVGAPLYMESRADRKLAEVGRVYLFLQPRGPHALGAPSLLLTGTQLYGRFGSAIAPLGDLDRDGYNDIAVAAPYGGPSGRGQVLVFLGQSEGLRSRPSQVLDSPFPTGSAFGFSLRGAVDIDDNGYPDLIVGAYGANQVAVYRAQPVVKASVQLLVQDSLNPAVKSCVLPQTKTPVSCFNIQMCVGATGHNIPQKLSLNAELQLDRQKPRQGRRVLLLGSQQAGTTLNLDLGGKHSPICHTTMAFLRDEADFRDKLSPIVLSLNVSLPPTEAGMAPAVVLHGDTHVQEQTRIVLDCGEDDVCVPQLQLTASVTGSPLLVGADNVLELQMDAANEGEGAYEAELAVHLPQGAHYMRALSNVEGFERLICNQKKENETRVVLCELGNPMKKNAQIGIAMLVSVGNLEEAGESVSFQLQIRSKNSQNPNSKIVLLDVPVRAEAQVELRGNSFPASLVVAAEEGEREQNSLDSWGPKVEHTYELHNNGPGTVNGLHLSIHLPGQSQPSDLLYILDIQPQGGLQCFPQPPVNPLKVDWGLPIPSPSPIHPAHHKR", "T1 sequence (P05106 27-788 partner)": "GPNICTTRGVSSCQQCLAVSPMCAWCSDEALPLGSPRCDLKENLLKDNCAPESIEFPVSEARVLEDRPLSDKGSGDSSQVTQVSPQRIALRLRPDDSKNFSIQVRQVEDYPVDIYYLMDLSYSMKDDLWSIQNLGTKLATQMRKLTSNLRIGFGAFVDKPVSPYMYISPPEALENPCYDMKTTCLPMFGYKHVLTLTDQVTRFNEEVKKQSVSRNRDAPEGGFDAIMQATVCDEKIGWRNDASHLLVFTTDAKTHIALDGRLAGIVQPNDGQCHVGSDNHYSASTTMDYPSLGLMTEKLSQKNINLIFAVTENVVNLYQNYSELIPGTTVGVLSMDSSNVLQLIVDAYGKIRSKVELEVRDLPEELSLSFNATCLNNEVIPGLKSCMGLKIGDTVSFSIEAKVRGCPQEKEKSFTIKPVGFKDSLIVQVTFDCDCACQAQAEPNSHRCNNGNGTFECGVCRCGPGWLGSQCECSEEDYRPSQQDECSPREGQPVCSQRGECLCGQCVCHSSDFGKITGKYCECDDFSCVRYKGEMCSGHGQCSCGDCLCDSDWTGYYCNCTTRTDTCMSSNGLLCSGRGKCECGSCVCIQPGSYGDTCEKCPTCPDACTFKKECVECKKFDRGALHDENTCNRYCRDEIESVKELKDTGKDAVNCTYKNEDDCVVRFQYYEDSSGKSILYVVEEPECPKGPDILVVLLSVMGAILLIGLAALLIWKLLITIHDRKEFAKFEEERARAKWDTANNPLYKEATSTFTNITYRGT", "test": "Force spectroscopy (laser tweezers), CHO cells and fibrinogen-coated beads", "assay_type": "cell-based, Chinese hamster", "conditions": "0.5 μM polypeptide", "description": "Litvinov R I et al. Proc. Natl. Acad. Sci. USA. 99, 7426-31 (2002). Recombinant human OPN, prepared as previously described (Bennett J S et al. J. Biol. Chem. 272, 8137-40 (1997)) or purified human fibrinogen was covalently bound to 0.93 μm carboxylate-modified latex beads. Individual cells, trapped from a suspension of gel filtered human platelets or CHO cells, were manually attached to 5 μm diameter silica pedestals coated with polylysine. An OPN- or fibrinogen-coated bead, trapped by the laser light, was then brought into proximity of an immobilized cell, oscillated at 50 Hz, and then brought into repeated intermittent contact with the cell by micromanipulation. Data collection was initiated at the first contact between the bead and the cell. Rupture forces following repeated contacts were collected for periods of several seconds to one minute. Individual forces measured during each contact-detachment cycle were collected into 10 pN-wide bins. The number of events in each bin was then plotted against the average force for that bin after normalizing for the total number of interaction cycles. Thus, the percentage of events in a particular force range (bin) represents the probability of rupture events at that tension. […] Therefore, rupture forces in this range were not considered when the data were analyzed. […]", "note": "Peptide text beside a SMILES is read from it.", "data": [{"smiles": "CC[C@H](C)[C@H](NC(=O)[C@H](Cc1ccccc1)NC(=O)[C@H](Cc1ccccc1)NC(=O)[C@@H]1CCCN1C(=O)[C@H](CC(C)C)NC(=O)[C@H](CC(C)C)NC(=O)[C@H](CCSC)NC(=O)[C@@H](NC(=O)[C@H](Cc1ccc(O)cc1)NC(=O)[C@H](C)NC(=O)[C@H](CCCCN)NC(=O)[C@@H](N)CCCCN)C(C)C)C(=O)NCC(=O)N[C@@H](CC(C)C)C(=O)N[C@@H](CC(C)C)C(=O)N[C@@H](CC(C)C)C(=O)NCC(=O)N[C@@H](CC(C)C)C(=O)N[C@H](C(=O)N[C@@H](Cc1ccccc1)C(=O)NCC(=O)NCC(=O)N[C@@H](C)C(=O)N[C@@H](Cc1ccccc1)C(=O)N[C@@H](Cc1c[nH]c2ccccc12)C(=O)NCC(=O)N1CCC[C@H]1C(=O)N[C@@H](C)C(=O)N[C@@H](CCCNC(=N)N)C(=O)N[C@@H](Cc1c[nH]cn1)C(=O)N[C@@H](CC(C)C)C(=O)N[C@@H](CCCCN)C(=O)N[C@@H](CCCCN)C(N)=O)[C@@H](C)CC", "note": "[anti-αIIb] (H-KKAYVMLLPFFIGLLLGLIFGGAFWGPARHLKK-NH2; N-terminus assumed)", "values": [{"measurement": "rupture force between CHO cells expressing αIIbβ3 and fibrinogen-coated beads", "value": "peak of rupture force identical to that seen when platelets were incubated with ADP"}, {"measurement": "rupture force peak after pre-incubation of CHO cells with abciximab", "setting": "abciximab 200 μg/ml", "value": "not present"}]}]}
